Patent US11026875B2, “Skin restoration product” (Givaudan SA, priority 2016, dated 2021)

System: normal human dermal fibroblasts (NHFs)
Experiment: N-sulfated GAG (heparan sulfate) synthesis (production + liberation) by normal human dermal fibroblasts
Assay type: cell-based
Details: 72 h, cells pellets + supernatants, reported to total proteins, composition at 1 mM
Method: The composition was applied at 0.5 and 1 mM to normal human dermal fibroblasts (NHFs) over a period of 72 hours. Normal human fibroblasts (NHFs), were isolated from the skin dermis of Caucasian women donors (plastic surgery). Cells were seeded at 80 000 fibroblasts/well in 24-wells plates and were left to adhere for 24 hours at 37° C./5% CO2 in complete DMEM (Dulbecco's Modified Eagle Medium) (with antibiotics and FBS, fetal bovine serum).
The cells were then treated with the composition in non-supplemented medium (without FBS) for 72 hours and incubated at 37° C./5% CO2, and then total sGAG (sulfated Glycosaminoglycans) and HS (Heparan sulfate, or N-sulfated GAG) were dosed in culture supernatants and cells pellets (total proteins were dosed in cells pellets). Each product concentration was tested in duplicate. Furthermore, dosages were reported as a proportion of total amount of proteins. At the end of treatment, supernatants were collected. Cells were lysed in a papain containing buffer (Papaya latex Sigma P3125). Cells extracts were collected and centrifuged. Supernatants and cells pellets were dosed for sGAG, HS, or total proteins.
sGAG and HS dosage principles: Total sulfated GAG (sGAG), were dosed using the Blyscan™ sGAG Assay kit (Biocolor B1000 or B3000). The Blyscan™ assay is a quantitative dye-binding method for the analysis of sulfated proteoglycans and glycosaminoglycans (sGAG). The dye label used in the assay is 1,9-dimethylmethylene blue and the dye is employed under conditions that provide a specific label for the sulfated polysaccharide component of proteoglycans or the protein free sulfated glycosaminoglycan chains. The method consists of adding a specific blue dye reagent to an aliquot of supernatants or cells pellets which makes sGAG precipitate (a complex dye-sGAG is formed and precipitates out from the soluble unbound dye).
Centrifugation permitted the collection of a pellet of precipitate at the tube bottom. After having carefully drained the dye, the pellet was solubilized in a dissociation reagent (5-10% Sodium dodecyl sulphate). Absorbance was read at 656 nm in duplicate, in a 96-wells microplate. […] After this reaction, O-sGAG level can be measured using the protocol as normal, and N-sulfated content was subsequently calculated from the difference between the total sGAG value (determined earlier) and the O-sGAG content.
Total proteins dosage principle: Total proteins dosage in cells pellets was performed in parallel by colorimetric method based on bicinchoninic acid (BCA). […] The amount of reduction and of BCA-Cu^+ complex is proportional to the protein concentration present and is quantified by spectrophotometric lecture at 570 nm. […]

“TGF beta: transforming growth factor beta, used as positive control” was tested, and the “N-sulfated GAG synthesis improvement” value (donor one fibroblasts) was “+43%”, the “N-sulfated GAG synthesis improvement” value (donor one fibroblasts, listed as TGFβ) was “+43%” and the “N-sulfated GAG synthesis improvement” value (donor two fibroblasts) was “+24%”. For the same substance, the “N-sulfated GAG synthesis improvement” value (donor two fibroblasts, listed as TGFβ) was “+24%”.
